In patent EP2970215B1, “PYRROLIDINE DERIVATIVES, PHARMACEUTICAL COMPOSITIONS CONTAINING THEM, AND THEIR USE IN THERAPY” (AbbVie Deutschland GmbH & Co. KG, priority 2013, dated 2014):

The molecules below were run against T1, human GlyT1c transporter (Homo sapiens, UniProt P48067) (assay: Radioligand binding assay using recombinant CHO cell membranes expressing human GlyT1). Conditions: radioligand binding to human GlyT1c transporter-expressing membranes.
T1 construct: expressed in transfected cells; host or cells: CHO cells (recombinant; line hGlyT1c_5_CHO is named for the uptake assay)
T1 sequence (P48067 1-706): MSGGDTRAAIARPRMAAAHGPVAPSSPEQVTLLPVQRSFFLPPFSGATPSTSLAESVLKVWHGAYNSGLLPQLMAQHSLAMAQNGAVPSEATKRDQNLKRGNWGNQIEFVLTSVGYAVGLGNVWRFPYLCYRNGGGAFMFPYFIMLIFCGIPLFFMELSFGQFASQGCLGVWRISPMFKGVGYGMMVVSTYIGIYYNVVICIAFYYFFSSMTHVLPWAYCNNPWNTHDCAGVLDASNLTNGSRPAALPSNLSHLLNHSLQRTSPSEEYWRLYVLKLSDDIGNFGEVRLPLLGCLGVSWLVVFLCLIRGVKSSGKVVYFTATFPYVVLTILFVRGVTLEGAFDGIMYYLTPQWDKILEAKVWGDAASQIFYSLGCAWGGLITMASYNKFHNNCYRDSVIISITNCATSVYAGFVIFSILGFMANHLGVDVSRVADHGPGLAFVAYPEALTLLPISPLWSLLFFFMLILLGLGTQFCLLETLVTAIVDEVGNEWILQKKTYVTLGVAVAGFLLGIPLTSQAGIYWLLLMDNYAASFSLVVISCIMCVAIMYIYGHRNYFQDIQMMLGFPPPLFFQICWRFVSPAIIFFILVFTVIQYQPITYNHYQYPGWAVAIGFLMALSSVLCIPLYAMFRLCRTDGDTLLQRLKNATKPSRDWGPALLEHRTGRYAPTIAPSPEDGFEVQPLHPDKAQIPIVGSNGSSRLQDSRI
Description: 2. Radioligand binding assays using recombinant CHO cell membranes expressing human GlyT1: […]
Cn1cnc(S(=O)(=O)N2C[C@@H](C(=O)Nc3cccc(C(F)(F)F)c3Cl)[C@H](c3ccc(F)cc3)C2)c1 (relative stereo) [Example 272, Trans-N-[2-chloro-3-(trifluoromethyl)phenyl] -4-(4-fluorophenyl)-1 - [(1-methyl-1H-imidazol-4-yl)sulfonyl]pyrrolidine-3-carboxamide] was tested, and the Ki was ≤ 1000 nM.
With Cn1cnc(S(=O)(=O)N2C[C@@H](Nc3cccc(Cl)c3)[C@H](OCc3ccccc3)C2)c1 (relative stereo) [Example 400, Trans-4-(benzyloxy)-N-(3-chlorophenyl)-1-[(1-methyl-1H-imidazol-4-yl)sulfonyl]pyrrolidin-3-amine] the Ki was ≤ 10000 nM.
Cc1ccc(C(=O)N[C@@H]2CN(S(=O)(=O)c3cn(C)cn3)C[C@H]2c2ccccc2)cc1 (relative stereo) [Example 24, 4-methyl-N-{trans-1-[(1-methyl-1H-imidazol-4-yl)sulfonyl]-4-phenylpyrrolidin-3-yl}benzamide] was tested, and the Ki was ≤ 10000 nM.
With Cn1cnc(S(=O)(=O)N2C[C@@H](Nc3cccc(Cl)c3)[C@H](c3cccc(F)c3)C2)c1 (relative stereo) [Example 188, trans-N-(3-chlorophenyl)-4-(3-fluorophenyl)-1-[(1-methyl-1H-imidazol-4-yl)sulfonyl]pyrrolidin-3-amine] the Ki was ≤ 100 nM.
In the case of O=S(=O)(c1c(Cl)nc2sccn12)N1CC(Nc2ccc(F)c(F)c2)C(c2ccccc2)C1 (stereo not shown) [Example 520, 1-[(6-chloroimidazo[2,1-b][1,3]thiazol-5-yl)sulfonyl]-N-(3,4-difluorophenyl)-4-phenylpyrrolidin-3-amine], the Ki is reported as ≤ 10000 nM.
With CCc1oc2ccccc2c1CN[C@H]1CN(S(=O)(=O)c2cn(C)cn2)C[C@@H]1c1ccccc1 [Example 534, (3R,4S)-N-[(2-ethyl-1-benzofuran-3-yl)methyl]-1-[(1-methyl-1H-imidazol-4-yl)sulfonyl]-4-phenylpyrrolidin-3-amine] the Ki was ≤ 1000 nM.
For Cn1cnc(S(=O)(=O)N2C[C@@H](NC(=O)c3cccc(F)c3)[C@H](c3ccccc3)C2)c1 (relative stereo) [Example 18, 3-fluoro-N-{trans-1-[(1-methyl-1H-imidazol-4-yl)sulfonyl]-4-phenylpyrrolidin-3-yl}benzamide], the Ki was ≤ 10000 nM.
Cn1cnc(S(=O)(=O)N2C[C@H](NC(=O)CCCC(F)(F)F)[C@@H](c3ccc(F)cc3)C2)c1 [Example 698, 5,5,5-trifluoro-N-{(3R,4S)-4-(4-fluorophenyl)-1-[(1-methyl-1H-imidazol-4-yl)sulfonyl]pyrrolidin-3-yl}pentanamide] was tested, and the Ki was ≤ 1000 nM.
Cn1cnc(S(=O)(=O)N2C[C@H](Nc3cnc(C4CC4)cn3)[C@@H](c3ccccc3)C2)c1 [Example 410, 5-cyclopropyl-N-{(3R,4S)-1-[(1-methyl-1H-imidazol-4-yl)sulfonyl]-4-phenylpyrrolidin-3-yl}pyrazin-2-amine] was tested, and the Ki was ≤ 10000 nM.
With Cn1cnc(S(=O)(=O)N2C[C@@H](COc3cc(C(F)(F)F)ncn3)[C@H](c3ccc(F)cc3)C2)c1 (relative stereo) [Example 336, 4-({Trans-4-(4-fluorophenyl)-1-[(1-methyl-1H-imidazol-4-yl)sulfonyl]pyrrolidin-3-yl}methoxy)-6-(trifluoromethyl)pyrimidine] the Ki was ≤ 1000 nM.
Cn1cnc(S(=O)(=O)N2CC(c3ccccc3)C(Cc3cccc(Cl)c3)C2=O)c1 (stereo not shown) [Example 331, 3-(3-chlorobenzyl)-1-[(1-methyl-1H-imidazol-4-yl)sulfonyl]-4-phenylpyrrolidin-2-one] was tested, and the Ki was ≤ 1000 nM.
In the case of Cn1cnc(S(=O)(=O)N2C[C@@H](NC(=O)c3ccc(C(F)(F)F)cc3)[C@H](c3ccccc3)C2)c1 (relative stereo) [Example 37, N-{trans-1-[(1-methyl-1H-imidazol-4-yl)sulfonyl]-4-phenylpyrrolidin-3-yl}-4-(trifluoromethyl)benzamide], the Ki is reported as ≤ 1000 nM.
In the case of Cn1cnc(S(=O)(=O)N2C[C@@H](N3Cc4ccc(Cl)cc4C3=O)[C@H](c3ccccn3)C2)c1 (relative stereo) [Example 381, 6-chloro-2-[Trans-1-[(1-methyl-1H-imidazol-4-yl)sulfonyl]-4-(pyridin-2-yl)pyrrolidin-3-yl]-2,3-dihydro-1H-isoindol-1-one], the Ki is reported as ≤ 10000 nM.
With Cn1cnc(S(=O)(=O)N2C[C@H](Nc3cc(-c4ccccc4)ncn3)[C@@H](c3ccc(F)cc3)C2)c1 [Example 722, N-{(3R,4S)-4-(4-fluorophenyl)-1-[(1-methyl-1H-imidazol-4-yl)sulfonyl]pyrrolidin-3-yl}-6-phenylpyrimidin-4-amine] the Ki was ≤ 10 nM.
For Cc1cc(N[C@@H]2CN(S(=O)(=O)c3cn(C)cn3)C[C@H]2[C@@H]2CCCOC2)ccc1F (mixture of isomers) [Example 790, Trans-N-(4-fluoro-3-methylphenyl)-1-[(1-methyl-1H-imidazol-4-yl)sulfonyl]-4-[(3S)-tetrahydro-2H-pyran-3-yl]pyrrolidin-3-amine], the Ki was ≤ 1000 nM.
For Cn1cnc(S(=O)(=O)N2C[C@H](NCCC3CC3)[C@@H](c3ccccc3)C2)c1 [Example 545, (3R,4S)-N-(2-cyclopropylethyl)-1-[(1-methyl-1H-imidazol-4-yl)sulfonyl]-4-phenylpyrrolidin-3-amine], the Ki was ≤ 1000 nM.
In the case of Cc1nn(C)c(Cl)c1S(=O)(=O)N1C[C@@H](NC(=O)c2cccc(C(F)(F)F)c2Cl)[C@H](c2ccccc2)C1 (relative stereo) [Example 40, 2-chloro-N-{trans-1-[(5-chloro-1,3-dimethyl-1H-pyrazol-4-yl)sulfonyl]-4-phenylpyrrolidin-3-yl}-3-(trifluoromethyl)benzamide], the Ki is reported as ≥ 10000 nM.
In the case of Cn1cnc(S(=O)(=O)N2C[C@@H](C(=O)Nc3cccc(C#N)c3)[C@H](c3ccc(F)cc3)C2)c1 (relative stereo) [Example 347, Trans-N-(3-cyanophenyl)-4-(4-fluorophenyl)-1-[(1-methyl-1H-imidazol-4-yl)sulfonyl]pyrrolidine-3-carboxamide], the Ki is reported as ≤ 10000 nM.
O=c1[nH]c2ccc(S(=O)(=O)N3CC(Nc4ccc(F)c(F)c4)C(c4ccccc4)C3)cc2[nH]1 (stereo not shown) [Example 506, 5-({3-[(3,4-difluorophenyl)amino]-4-phenylpyrrolidin-1-yl}sulfonyl)-1,3-dihydro-2H-benzimidazol-2-one] was tested, and the Ki was ≤ 10000 nM.
Cn1cnc(S(=O)(=O)N2C[C@@H](Nc3cc(C(F)(F)F)ccn3)[C@H](c3ccccc3)C2)c1 (relative stereo) [Example 212, N-{trans-1-[(1-methyl-1H-imidazol-4-yl)sulfonyl]-4-phenylpyrrolidin-3-yl}-4-(trifluoromethyl)pyridin-2-amine] was tested, and the Ki was ≤ 100 nM.
For Cn1cnc(S(=O)(=O)N2C[C@H](Nc3ccc4c(c3)C(C)(C)CCO4)[C@@H](c3ccc(F)cc3)C2)c1 [Example 672, (3R,4S)-N-(4,4-dimethyl-3,4-dihydro-2H-chromen-6-yl)-4-(4-fluorophenyl)-1-[(1-methyl-1H-imidazol-4-yl)sulfonyl]pyrrolidin-3-amine], the Ki was ≤ 1000 nM.
Cn1cnc(S(=O)(=O)N2CC(Cc3cccc(Cl)c3)C(C3CC3)C2)c1 (stereo not shown) [Example 309, 4-{[3-(3-chlorobenzyl)-4-cyclopropylpyrrolidin-1-yl]sulfonyl}-1-methyl-1H-imidazole] was tested, and the Ki was ≤ 1000 nM.
In the case of Cn1cnc(S(=O)(=O)N2C[C@@H](C(=O)Nc3cccc(C(F)(F)F)c3)[C@H](c3ccc(F)cc3)C2)c1 (relative stereo) [Example 317, Trans-4-(4-fluorophenyl)-1-[(1-methyl-1H-imidazol-4-yl)sulfonyl]-N-[3-(trifluoromethyl)phenyl]pyrrolidine-3-carboxamide], the Ki is reported as ≤ 1000 nM.
CCc1cc(N[C@H]2CN(S(=O)(=O)c3cn(C)cn3)C[C@@H]2c2ccc(F)cc2)ncn1 [Example 613, 6-ethyl-N-{(3R,4S)-4-(4-fluorophenyl)-1-[(1-methyl-1H-imidazol-4-yl)sulfonyl]pyrrolidin-3-yl}pyrimidin-4-amine] was tested, and the Ki was ≤ 1000 nM.
CCCS(=O)(=O)N1C[C@@H](NC(=O)c2cccc(C(F)(F)F)c2Cl)[C@H](c2ccccc2)C1 (relative stereo) [Example 127, 2-chloro-N-[trans-4-phenyl-1-(propylsulfonyl)pyrrolidin-3-yl]-3-(trifluoromethyl)benzamide] was tested, and the Ki was ≤ 10000 nM.
For Cn1cnc(S(=O)(=O)N2C[C@H](Nc3cc(-c4ccncc4)ccn3)[C@@H](c3ccc(F)cc3)C2)c1 [Example 751, N-{(3R,4S)-4-(4-fluorophenyl)-1-[(1-methyl-1H-imidazol-4-yl)sulfonyl]pyrrolidin-3-yl}-4,4'-bipyridin-2-amine], the Ki was ≤ 100 nM.
In the case of Cn1cnc(S(=O)(=O)N2C[C@@H](Nc3ccnc(F)c3)[C@H](c3ccc(F)cc3)C2)c1 (relative stereo) [Example 239, 2-fluoro-N-{trans-4-(4-fluorophenyl)-1-[(1-methyl-1H-imidazol-4-yl)sulfonyl]pyrrolidin-3-yl} pyridin-4-amine], the Ki is reported as ≤ 10000 nM.
In the case of Cn1cnc(S(=O)(=O)N2C[C@H](NCCCCC(F)(F)F)[C@@H](c3ccc(F)cc3)C2)c1 [Example 732, (3R,4S)-4-(4-fluorophenyl)-1-[(1-methyl-1H-imidazol-4-yl)sulfonyl]-N-(5,5,5-trifluoropentyl)pyrrolidin-3-amine], the Ki is reported as ≤ 100 nM.
